Source: patent US20250064968A1, “ANTIBODY-CONJUGATED CHEMICAL […] OF D[…] H[…] LINKERS AND METHODS THEREOF” (Genentech, Inc., priority 2022, published 2025)

Tests used:
BRM = target: T1, BRM (Homo sapiens, UniProt P51531); assay: Cell assays to determine DC50 and Dmax (nuclear BRM immunofluorescence after Ab-CIDE treatment); format: cell-based; parameters: DCmax (NCI-H1944): unit not given here; conditions: NCI-H1944 cells, 24 h drug treatment
T1 construct: endogenous in cells; host or cells: HCC515 and H1944 (NCI-H1944) cells
T1 sequence (P51531 whole entry): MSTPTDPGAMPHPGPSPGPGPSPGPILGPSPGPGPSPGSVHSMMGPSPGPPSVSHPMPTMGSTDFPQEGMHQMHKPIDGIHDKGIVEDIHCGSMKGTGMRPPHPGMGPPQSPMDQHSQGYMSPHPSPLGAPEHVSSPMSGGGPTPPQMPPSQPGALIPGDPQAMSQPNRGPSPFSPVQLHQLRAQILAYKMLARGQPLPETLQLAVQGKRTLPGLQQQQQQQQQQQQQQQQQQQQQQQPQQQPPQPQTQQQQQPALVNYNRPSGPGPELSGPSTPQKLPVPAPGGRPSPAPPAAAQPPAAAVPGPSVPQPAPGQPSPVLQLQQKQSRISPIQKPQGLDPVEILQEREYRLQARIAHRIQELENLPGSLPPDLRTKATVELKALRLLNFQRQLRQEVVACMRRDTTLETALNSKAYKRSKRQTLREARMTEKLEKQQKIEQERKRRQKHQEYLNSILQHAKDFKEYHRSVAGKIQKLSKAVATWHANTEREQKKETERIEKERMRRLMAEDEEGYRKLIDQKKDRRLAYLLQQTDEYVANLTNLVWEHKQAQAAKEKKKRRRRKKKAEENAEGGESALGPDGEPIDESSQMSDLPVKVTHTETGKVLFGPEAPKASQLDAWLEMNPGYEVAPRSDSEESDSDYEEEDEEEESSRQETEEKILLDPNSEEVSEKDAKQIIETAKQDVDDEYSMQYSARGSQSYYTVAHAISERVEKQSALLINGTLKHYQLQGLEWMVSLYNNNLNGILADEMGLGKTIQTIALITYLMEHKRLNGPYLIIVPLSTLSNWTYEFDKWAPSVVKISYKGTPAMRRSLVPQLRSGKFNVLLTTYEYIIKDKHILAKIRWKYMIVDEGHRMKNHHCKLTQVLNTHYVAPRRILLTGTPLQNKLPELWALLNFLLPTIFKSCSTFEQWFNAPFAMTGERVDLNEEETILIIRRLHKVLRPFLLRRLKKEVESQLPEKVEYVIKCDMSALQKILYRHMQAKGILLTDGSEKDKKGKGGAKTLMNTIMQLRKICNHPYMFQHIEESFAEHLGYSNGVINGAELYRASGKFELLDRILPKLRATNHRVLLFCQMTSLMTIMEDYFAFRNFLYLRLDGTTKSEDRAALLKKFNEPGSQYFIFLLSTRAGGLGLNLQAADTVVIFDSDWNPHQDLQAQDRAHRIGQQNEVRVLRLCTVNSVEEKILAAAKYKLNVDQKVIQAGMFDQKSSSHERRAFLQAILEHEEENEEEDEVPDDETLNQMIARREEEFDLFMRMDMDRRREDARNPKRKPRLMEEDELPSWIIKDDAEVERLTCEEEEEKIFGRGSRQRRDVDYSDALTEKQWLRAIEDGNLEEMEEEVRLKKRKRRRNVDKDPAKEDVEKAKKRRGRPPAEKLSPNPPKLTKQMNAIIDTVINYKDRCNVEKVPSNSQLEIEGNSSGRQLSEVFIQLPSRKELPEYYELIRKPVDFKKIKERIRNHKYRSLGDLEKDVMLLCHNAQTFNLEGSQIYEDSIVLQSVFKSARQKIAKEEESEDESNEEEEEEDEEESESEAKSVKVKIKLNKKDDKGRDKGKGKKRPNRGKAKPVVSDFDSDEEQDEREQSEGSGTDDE
Protocol: HCC515 and H1944 cells were plated in 384 well plates at 4000 and 2500 cells/well, respectively. The next day Ab-CIDEs were added. Following 24 h of drug treatment the cells were fixed with […] for 15 minutes. The plates were washed three time with PBS. The cells were incubated with IF blocking solution ([…], 10% BSA, 0.1% Triton, 0.010% Azide, X-100 in PBS). After 1.5 h a 2× solution of primary antibody diluted in IF blocking buffer: BRM (Cell signaling Cat #11966, 1:2000) was added. The plates were incubated over night at 4° C. The following morning cells were washed three time with PBS. Cells were then incubated with secondary antibodies (rabbit-Alexa 488 A21206 (1:2000)) for 1 h at room temperature in the dark. Hoechst H3570 at 1:5000 was added to the wells and the plates were incubated for an additional 30 minutes. Plates were wash 3×PBS and image on Opera Phenix™ High Content Screening System. Using nuclear staining as a mask, nuclear BRM mean signal intensity was quantified.

[1] = Stability of antibody-conjugated L1-CIDE at high DAR (DAR 14 synthesis); format: physicochemical; conditions: antibody conjugate from DAR 14 synthesis
Source text: The hydrolysable linkers therefore are able to provide an advantage in obtaining high DAR, which results in high numbers of CTDEs that can be attached to a single antibody.

[2] = Ab target TfR2, conjugate DAR 5.41-6.14
[3] = Ab target TfR2, high-DAR conjugate (DAR 13.13-13.75)

Compound | DC50 (BRM; [2]) | DCmax (NCI-H1944) (BRM; [2]) | DCmax (NCI-H1944) (BRM; [3]) | DC50 (BRM; Ab target TfR2, high-DAR conjugate (DAR 13.75)) | Stability [1] | DC50 (NCI-H1944) (BRM; [2])
CC(C)[C@@H](C(=O)N1C[C@H](O)C[C@H]1C(=O)N[C@@H](C)c1ccc(C#N)cc1)c1cc(OCCN2CCC(O[C@H]3C[C@H](Oc4cc(N5C6CCC5CN(c5cc(-c7ccccc7OCc7ccc(NC(=O)[C@H](CCCCN(C)C)NC(=O)C8(C(=O)NCCN(C)CCN9C(=O)C=CC9=O)CCC8)cc7)nnc5N)C6)ccn4)C3)CC2)no1 [Hy-B-CIDE-7] | 205 nM | 62 | 75 | 89.6 nM | Stable | –
CC(C)[C@@H](C(=O)N1C[C@H](O)C[C@H]1C(=O)N[C@@H](C)c1ccc(C#N)cc1)c1cc(OCCN2CCC(O[C@H]3C[C@H](Oc4cc(N5C6CCC5CN(c5cc(-c7ccccc7OCc7ccc(NC(=O)[C@H](CCCCN(C)C)NC(=O)C8(C(=O)NCCCCCNC(=O)[C@H](CO)N9C(=O)C=CC9=O)CCC8)cc7)nnc5N)C6)ccn4)C3)CC2)no1 [Hy-B-CIDE-12] | 12600 nM | 60 | – | – | – | –
CC(C)[C@@H](C(=O)N1C[C@H](O)C[C@H]1C(=O)N[C@@H](C)c1ccc(C#N)cc1)c1cc(OCCN2CCC(O[C@H]3C[C@H](Oc4cc(N5C6CCC5CN(c5cc(-c7ccccc7O)nnc5NC(=O)OCc5ccc(NC(=O)[C@H](CCCCN(C)C)NC(=O)C7(C(=O)NCCCCCN(C)CCN8C(=O)C=CC8=O)CCC7)cc5)C6)ccn4)C3)CC2)no1.O=C(O)C(F)(F)F [Hy-B-CIDE-9] | 2200 nM | 82 | – | – | – | –
Cc1ncsc1-c1ccc([C@H](C)NC(=O)[C@@H]2C[C@@H](O)CN2C(=O)[C@@H](c2cc(OCCN3CCN(CCOc4cc(N5C6CCC5CN(c5cc(-c7ccccc7OCc7ccc(NC(=O)[C@H](CCCCN(C)C)NC(=O)C8(C(=O)NCCCCCN(C)CCN9C(=O)C=CC9=O)CCC8)cc7)nnc5N)C6)ccn4)[C@H](C)C3)no2)C(C)C)cc1.O=C(O)C(F)(F)F [Hy-B-CIDE-8] | 85.6 nM | 74 | – | – | – | –
CC(C)[C@@H](C(=O)N1C[C@H](O)C[C@H]1C(=O)N[C@@H](C)c1ccc(C#N)cc1)c1cc(OCCN2CCC(O[C@H]3C[C@H](Oc4cc(N5C6CCC5CN(c5cc(-c7ccccc7O)nnc5NC(=O)OCc5ccc(NC(=O)[C@H](CCCCN(C)C)NC(=O)C7(C(=O)NCCCCCNC(=O)[C@H](CO)N8C(=O)C=CC8=O)CCC7)cc5)C6)ccn4)C3)CC2)no1 [Hy-B-CIDE-10] | 4440 nM | 80 | – | – | – | –
CC(C)[C@@H](C(=O)N1C[C@H](OP(=O)(O)O)C[C@H]1C(=O)N[C@@H](C)c1ccc(C#N)cc1)c1cc(OCCN2CCC(O[C@H]3C[C@H](Oc4cc(N5C6CCC5CN(c5cc(-c7ccccc7OCc7ccc(NC(=O)[C@H](CCCCN(C)C)NC(=O)C8(C(=O)NCCN(C)CCN9C(=O)C=CC9=O)CCC8)cc7)nnc5N)C6)ccn4)C3)CC2)no1 [Hy-B-PCIDE-2] | – | – | 42 | – | Stable | –
COC[C@@H](C(=O)NCCCCCNC(=O)C1(C(=O)N[C@@H](CCCCN(C)C)C(=O)Nc2ccc(COc3ccccc3-c3cc(N4CC5CCC(C4)N5c4ccnc(OCCN5CCN(CCOc6cc([C@H](C(=O)N7C[C@H](O)C[C@H]7C(=O)N[C@@H](C)c7ccc(-c8scnc8C)cc7)C(C)C)on6)C[C@H]5C)c4)c(N)nn3)cc2)CCC1)N1C(=O)C=CC1=O.O=C(O)C(F)(F)F [Hy-B-CIDE-2] | 160 nM | 90 | – | – | – | –
Cc1ncsc1-c1ccc([C@H](C)NC(=O)[C@@H]2C[C@@H](O)CN2C(=O)[C@@H](c2cc(OCCN3CCN(CCOc4cc(N5C6CCC5CN(c5cc(-c7ccccc7OCc7ccc(NC(=O)[C@H](CCCCN(C)C)NC(=O)C8(C(=O)NCCCCCNC(=O)[C@H](CO)N9C(=O)C=CC9=O)CCC8)cc7)nnc5N)C6)ccn4)[C@H](C)C3)no2)C(C)C)cc1.O=C(O)C(F)(F)F [Hy-B-CIDE-1] | 128 nM | 89 | – | – | – | –
Cc1ncsc1-c1ccc([C@H](C)NC(=O)[C@@H]2C[C@@H](O)CN2C(=O)[C@@H](c2cc(OCCN3CCN(CCOc4cc(N5C6CCC5CN(c5cc(-c7ccccc7OCc7ccc(NC(=O)[C@H](CCCCN(C)C)NC(=O)C8(C(=O)NCCN(C)CCN9C(=O)C=CC9=O)CCC8)cc7)nnc5N)C6)ccn4)[C@H](C)C3)no2)C(C)C)cc1.O=C(O)C(F)(F)F [Hy-B-CIDE-5] | 412 nM | 76 | – | – | – | –
CC(C)[C@@H](C(=O)N1C[C@H](O)C[C@H]1C(=O)N[C@@H](C)c1ccc(C#N)cc1)c1cc(OCCN2CCC(O[C@H]3C[C@H](Oc4cc(N5C6CCC5CN(c5cc(-c7ccccc7OCc7ccc(NC(=O)[C@H](CCCCN(C)C)NC(=O)C8(C(=O)NCCCCCN(C)CCN9C(=O)C=CC9=O)CCC8)cc7)nnc5N)C6)ccn4)C3)CC2)no1 [Hy-B-CIDE-11] | 23200 nM | 53 | – | – | – | –
Cc1ncsc1-c1ccc([C@H](C)NC(=O)[C@@H]2C[C@@H](O)CN2C(=O)[C@@H](c2cc(OCCN3CCN(CCOc4cc(N5C6CCC5CN(c5cc(-c7ccccc7OCc7ccc(NC(=O)[C@H](CCCCN(C)C)NC(=O)C8(C(=O)NCCCCCNC(=O)CN9C(=O)C=CC9=O)CCC8)cc7)nnc5N)C6)ccn4)[C@H](C)C3)no2)C(C)C)cc1.O=C(O)C(F)(F)F [Hy-B-CIDE-6] | – | 90 | – | – | – | 0.28 µg/mL
